Results taken from patent publication US20250288704A1, “CXCR4-LIGANDS FOR DIAGNOSTIC AND THERAPEUTIC USE AND PRECURSORS THEREOF” (priority 2021, published 2025).
Like-named read-outs stand apart in the source and are kept apart here. Positions of bridges follow the written chain, without caps; N, C: chain ends. Non-standard residues stand in square brackets, D forms with d. Residues, ends and D or L forms follow the SMILES beside them. Groups on a side chain read outwards from the residue. Chains are numbered I, II in the order given. *: point of attachment. X9 = NCCNCC(CNCCN)C(=O)NC[C@@H](NC(=O)CC[C@@H](NC(=O)N[C@H](CCC(=O)O)C(=O)O)C(=O)O)C(=O)*; X2 = OC[C@H]1O[C@@H](O[C@H]2[C@H](O)[C@@H](O)[C@H](*)O[C@@H]2CO)[C@H](O)[C@@H](O)[C@H]1O; X8 = NCCNCC(CNCCN)C(=O)NC[C@@H](NC(=O)CCC(NC(=O)N[C@H](CCC(=O)O)C(=O)O)C(=O)O)C(=O)*; X5 = CC(C)(C)[Si](F)(c1ccc(C[N+](C)(C)CC(=O)*)cc1)C(C)(C)C; DOTA = O=C(O)CN1CCN(CC(=O)O)CCN(CC(=O)*)CCN(CC(=O)O)CC1; 2Nal = N[C@@H](Cc1ccc2ccccc2c1)C(=O)O; dNMeOrn = CN[C@H](CCCN)C(=O)O; d(hCys) = N[C@H](CCS)C(=O)O; Mercaptoacetyl = O=C(CS)*; X4 = OCC1OC(*)C(O)C(O)C1O; 4Abz = Nc1ccc(C(=O)O)cc1; dDap = NC[C@@H](N)C(=O)O; Ahx = NCCCCCC(=O)O

How the values were obtained:
[1] = system: CXCR4-expressing Chem_1 cells; assay: Determination of internalization, dual tracer with 125I-Fc-131; type: cell-based; conditions: for Cell-bound [%] / Internalized [%]: of total cellular activity
Procedure, shortened: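 Chem_1 cells grown in DMEM-F12 with 10% FBS at 37 °C; wells (n=3 per time point) received medium or AMD3100 (1 mM stock) to block receptors. Unbound, surface-bound and NaOH-lysed internalized fractions were γ-counted; data corrected for non-specific internalization and referred to standard ligand specific internalization.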

CXCR4 [2] = target: T1, CXCR4 (Homo sapiens, UniProt P61073); assay: Determination of IC50: competition with 125I-Fc-131 on CXCR4-positive Jurkat cells; type: binding; design: CXCR4-positive Jurkat T lymphocyte cells were grown in Gibco's RPMI 1640 GlutaMAX medium; endogenous in cells; host or cells: Jurkat T lymphocyte cells (whole cells in suspension, 400.000 per tube);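 note: test compound at 10^−5 to 10^−11 M competed for 2 h at 8 °C with the radioligand on 400,000 cells per well, bound versus free activity measured by γ-counting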
T1 sequence (P61073 whole entry): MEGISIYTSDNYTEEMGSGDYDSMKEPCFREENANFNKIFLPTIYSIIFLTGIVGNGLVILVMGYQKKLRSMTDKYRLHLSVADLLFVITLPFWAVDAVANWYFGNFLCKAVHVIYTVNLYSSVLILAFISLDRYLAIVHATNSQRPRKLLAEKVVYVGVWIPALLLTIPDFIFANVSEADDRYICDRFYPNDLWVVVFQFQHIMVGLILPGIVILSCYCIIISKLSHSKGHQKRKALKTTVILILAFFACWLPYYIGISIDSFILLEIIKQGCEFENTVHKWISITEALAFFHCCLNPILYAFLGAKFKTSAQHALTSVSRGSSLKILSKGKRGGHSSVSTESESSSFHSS

[3] = Octanol/PBS partition coefficient (logD7.4); type: physicochemical; conditions: n-octanol/PBS pH 7.4, radiolabeled compound
Protocol: The tubes were vortexed at maximum speed for 3 min to ensure equilibrium before centrifugation at 15.000×g for 5 min on a Biofuge 15 from Heraeus Holding GmbH (Osterode, Germany). An aliquot of 100 μL of each fraction was measured in the γ-counter and the log D7.4 calculated as follows: […]

[4] = system: Jurkat tumor-bearing CB-17 SCID mice; assay: Biodistribution in Jurkat tumor-bearing CB-17 SCID mice; type: in vivo; conditions: 1 h p.i.
Procedure, shortened: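 CB17-SCID mice bore subcutaneous Jurkat xenografts (2-3×10^7 cells in Matrigel, shoulder), used at 5-8 mm tumor diameter. About 0.5-20 MBq (0.02-0.20 nmol) of 125I-, 177Lu-, 99mTc-, 18F- or 68Ga-labeled ligand given by tail vein; organs weighed and γ-counted after set times.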

[5] = Biodistribution in Daudi xenograft bearing CB-17 SCID mice; type: in vivo; conditions: mouse, iv, total radioactivity, 1 h p.i., CB-17 SCID female mice
CXCR4 [6] = target: T1, CXCR4; assay: Determination of inverse IC50 (invIC50): radiolabeled peptide displaced by Fc-131 on Jurkat cells
Protocol: For in vitro experiments, cells were counted in a hemocytometer using trypan blue as contrast agent. The cell suspension was centrifuged, and the pellet resuspended in HBSS (+1 wt % BSA) to a concentration of 2 mio cells/mL. 8×3 polystyrene tubes were loaded with 25 μL of the standard ligand ^125I-Fc-131 (see 4.1, 1.00 nM in HBSS) and 25 μL of the ligand to investigate in the respective concentration (10^−4-10^−10 M, n=3 for each concentration). 200 μL of cell suspension (400.000 cells per well) were added to obtain a final peptide concentration range of 10^−5-10^−11 M. The tubes were cooled for 2 h at 8° C. to prevent internalization. The experiment was stopped by removal of the supernatant. 200 μL HBSS were added onto the cells, the suspension centrifuged, and the supernatant pooled with the respective first fractions. This step was repeated once more before the tubes containing the supernatants and the ones containing the cell pellets were subjected to activity measurement in the γ-counter.
For the determination of inverse IC50 (invIC50) values the protocol for the determination of regular IC50 values was resumed with minor changes. The peptide under investigation was radioactively labeled and a stock solution was prepared in HBSS (2.00 nM). A concentration gradient of the standard ligand Fc-131 was prepared in HBSS (10^−4-10^−10 M). A cell tube was then containing 25 μL of the radioactive peptide solution, 25 μL of the respective Fc-131 solution and 200 μL cell suspension (400.000 cells). The experiment was conducted as described above.

[7] = 2,000 pmol cold substance co-injected, 1 mouse
[8] = co-injection of 1,000 μmol (so in the source) cold substance vs 36 pmol, 1 mouse

## C[C@@H](NC(=O)[C@@H](CCCNC(=N)N)NC(=O)[C@@H](CN)NC(=O)CCCCCNC(=O)[C@@H](CNC(=O)CN1CCN(CC(=O)O)CCN(CC(=O)O)CCN(CC(=O)O)CC1)NC(=O)[C@@H](CCS[C@@H]1O[C@H](CO)[C@@H](O[C@@H]2O[C@H](CO)[C@H](O)[C@H](O)[C@H]2O)[C@H](O)[C@H]1O)NC(=O)C[N+](C)(C)Cc1ccc([Si](F)(C(C)(C)C)C(C)(C)C)cc1)C(=O)Nc1ccc(C(=O)NCCC[C@@H]2C(=O)N[C@@H](CCCNC(=N)N)C(=O)N[C@@H](Cc3ccc4ccccc4c3)C(=O)NCC(=O)N[C@H](Cc3ccc(O)cc3)C(=O)N2C)cc1 [CXCR4-SiFA-7 [Ga]] (I: X5-[d(hCys)](X2)[dDap](DOTA)[Ahx][dDap][dR][dA][4Abz] / II: cyclo([dY][dNMeOrn]R[2Nal]G); amide I:C-II:2)
[1]; 30 min
  Internalized in relation to 125I-Fc-131 [%]: 837 ± 51.4%
  Cell-bound [%]: 0.11 ± 0.29%
  Internalized [%]: 38.9 ± 1.09%
[1]; 90 min
  Internalization [% Fc-131]: 1029 % Fc-131
  Internalized in relation to 125I-Fc-131 [%]: 1029 ± 66.7%
  Cell-bound [%]: 0 ± 0.41%
  Internalized [%]: 50.0 ± 1.12%
CXCR4 [2]; unlabeled or cold (natGa/natLu) compound vs 125I-Fc-131, Jurkat cells
  IC50: 6.23 ± 1.57 nM
[3]
  logD7.4: −1.95 ± 0.05 (8)
[4]; [7]
  uptake in liver compared to biodistribution with 36 pmol: 70%
  uptake in spleen compared to biodistribution with 36 pmol: 61%
  uptake in tumor compared to biodistribution with 36 pmol: 40%
[4]; [8]
  Blood activity level raised by: 310%
  tumor uptake compared to un-supplemented injection: 180%
  uptake in liver compared to un-supplemented injection: 121%
  uptake in muscle compared to un-supplemented injection: 226%
  uptake in pancreas compared to un-supplemented injection: 196%
  uptake in spleen compared to un-supplemented injection: 114%

## C[C@@H](NC(=O)[C@@H](CCCNC(=N)N)NC(=O)[C@@H](CO)NC(=O)[C@@H](CO)NC(=O)[C@@H](CO)NC(=O)CS)C(=O)Nc1ccc(C(=O)NCCC[C@@H]2C(=O)N[C@@H](CCCNC(=N)N)C(=O)N[C@@H](Cc3ccc4ccccc4c3)C(=O)NCC(=O)N[C@H](Cc3ccc(O)cc3)C(=O)N2C)cc1 [Tc-CXCR4-1] (I: Mercaptoacetyl-[dS][dS][dS][dR][dA][4Abz] / II: cyclo([dY][dNMeOrn]R[2Nal]G); amide I:C-II:2)
CXCR4 [2]
  IC50: 20.6 ± 7.52 nM
[5]; Blood, read-out: % iD/g Blood
  tissue uptake at 1 h: 0.83 %ID/g
[5]; Heart, read-out: % iD/g Heart
  tissue uptake at 1 h: 0.54 %ID/g
[5]; Intestine, read-out: % iD/g Intestine
  tissue uptake at 1 h: 1.12 %ID/g
[5]; Kidney, read-out: % iD/g Kidney
  tissue uptake at 1 h: 4 %ID/g
[5]; Liver, read-out: % iD/g Liver
  tissue uptake at 1 h: 3.54 %ID/g
[5]; Lung, read-out: % iD/g Lung
  tissue uptake at 1 h: 1.79 %ID/g
[5]; Muscle, read-out: % iD/g Muscle
  tissue uptake at 1 h: 0.16 %ID/g
[5]; Pancreas, read-out: % iD/g Pancreas
  tissue uptake at 1 h: 0.22 %ID/g
[5]; Spleen, read-out: % iD/g Spleen
  tissue uptake at 1 h: 1.09 %ID/g
[5]; Stomach, read-out: % iD/g Stomach
  tissue uptake at 1 h: 0.86 %ID/g
[5]; Tumor, read-out: % iD/g Tumor
  tissue uptake at 1 h: 1.41 %ID/g

## C[C@@H](NC(=O)[C@@H](CCCNC(=N)N)NC(=O)[C@@H](CN)NC(=O)[C@@H](CO)NC(=O)[C@@H](CCSC1OC(CO)C(O)C(O)C1O)NC(=O)[C@@H](CCSC1OC(CO)C(O)C(O)C1O)NC(=O)CS)C(=O)Nc1ccc(C(=O)NCCC[C@@H]2C(=O)N[C@@H](CCCNC(=N)N)C(=O)N[C@@H](Cc3ccc4ccccc4c3)C(=O)NCC(=O)N[C@H](Cc3ccc(O)cc3)C(=O)N2C)cc1 (some centres unmarked) [Tc-CXCR4-10] (I: Mercaptoacetyl-[d(hCys)](X4)[d(hCys)](X4)[dS][dDap][dR][dA][4Abz] / II: cyclo([2Nal]G[dY][dNMeOrn]R); amide I:C-II:4)
[1]; 30 min
  Internalized in relation to 125I-Fc-131 [%]: 226 ± 10.2%
  Cell-bound [%]: 6.75 ± 0.76%
  Internalized [%]: 18.8± 0.66%
[1]; 90 min
  Internalization [% Fc-131]: 267 (90 min) % Fc-131
  Internalized in relation to 125I-Fc-131 [%]: 267 ± 8.94%
  Cell-bound [%]: 6.06 ± 0.34%
  Internalized [%]: 31.7 ± 0.52%
CXCR4 [6]
  IC50: 5.13 ± 1.81 nM
[3]
  logD7.4: −2.32 ± 0.02 (7)

## C[C@@H](NC(=O)[C@@H](CCCNC(=N)N)NC(=O)[C@@H](CN)NC(=O)[C@@H](CNC(=O)C(CNCCN)CNCCN)NC(=O)CCC(NC(=O)N[C@H](CCC(=O)O)C(=O)O)C(=O)O)C(=O)Nc1ccc(C(=O)NCCC[C@@H]2C(=O)N[C@@H](CCCNC(=N)N)C(=O)N[C@@H](Cc3ccc4ccccc4c3)C(=O)NCC(=O)N[C@H](Cc3ccc(O)cc3)C(=O)N2C)cc1 (some centres unmarked) [Tc-CXCR4-15] (cyclo([2Nal]G[dY][dNMeOrn]([4Abz-dA-dR-dDap-X8])R))
[1]; 30 min
  Internalized in relation to 125I-Fc-131 [%]: 214 ± 11.7%
  Cell-bound [%]: 4.35 ± 0.16%
  Internalized [%]: 12.6 ± 0.34%
[1]; 90 min
  Internalization [% Fc-131]: 232 (90 min) % Fc-131
  Internalized in relation to 125I-Fc-131 [%]: 232 ± 15.3%
  Cell-bound [%]: 3.42 ± 0.27%
  Internalized [%]: 17.9 ± 1.06%
CXCR4 [6]
  IC50: 3.69 ± 1.32 nM
[3]
  logD7.4: −3.60 ± 0.02 (8)

## C[C@@H](NC(=O)[C@@H](CCCNC(=N)N)NC(=O)[C@@H](CN)NC(=O)CCCCCNC(=O)[C@@H](CNC(=O)C(CNCCN)CNCCN)NC(=O)CC[C@@H](NC(=O)N[C@H](CCC(=O)O)C(=O)O)C(=O)O)C(=O)Nc1ccc(C(=O)NCCC[C@@H]2C(=O)N[C@@H](CCCNC(=N)N)C(=O)N[C@@H](Cc3ccc4ccccc4c3)C(=O)NCC(=O)N[C@H](Cc3ccc(O)cc3)C(=O)N2C)cc1 [Tc-CXCR4-16] (cyclo([2Nal]G[dY][dNMeOrn]([4Abz-dA-dR-dDap-Ahx-X9])R))
[1]; 30 min
  Internalized in relation to 125I-Fc-131 [%]: 230 ± 10.7%
  Cell-bound [%]: 3.36 ± 0.45%
  Internalized [%]: 15.0 ± 0.31%
[1]; 90 min
  Internalization [% Fc-131]: 284 (90 min) % Fc-131
  Internalized in relation to 125I-Fc-131 [%]: 284 ± 10.4%
  Cell-bound [%]: 3.53 ± 0.21%
  Internalized [%]: 19.8 ± 0.15%
CXCR4 [6]
  IC50: 6.08 ± 1.03 nM
[3]
  logD7.4: −2.70 ± 0.04 (8)

## CC[C@H](C)[C@@H]([C@@H](CC(=O)N1CCC[C@H]1[C@H](OC)[C@@H](C)C(=O)N[C@H](C)C(O)c1ccccc1)OC)N(C)C(=O)[C@@H](NC(=O)[C@H](C(C)C)N(C)C(=O)OCc1ccc(NC(=O)[C@H](CCCNC(N)=O)NC(=O)[C@@H](NC(=O)CCCCCN2C(=O)CC(SCC[C@@H](N)C(=O)N[C@H](CCCNC(=N)N)C(=O)N[C@H](C)C(=O)Nc3ccc(C(=O)NCCC[C@@H]4C(=O)N[C@@H](CCCNC(=N)N)C(=O)N[C@@H](Cc5ccc6ccccc6c5)C(=O)NCC(=O)N[C@H](Cc5ccc(O)cc5)C(=O)N4C)cc3)C2=O)C(C)C)cc1)C(C)C (some centres unmarked) [^125I-CXCR4-MMAE −2]
[1]; 10 min
  Cell-bound [%]: 1.56 ± 0.78%
  Internalized [%]: 2.55 ± 0.34%
[1]; 30 min
  Cell-bound [%]: 2.09 ± 0.64%
  Internalized [%]: 7.78 ± 0.58%
[1]; 60 min
  Cell-bound [%]: 0.73 ± 0.54%
  Internalized [%]: 14.6 ± 0.89%
[1]; 120 min
  Cell-bound [%]: 0.27 ± 0.35%
  Internalized [%]: 27.9 ± 1.14%
[4]; Blood, Jurkat xenograft, CB-17 SCID female mice
  % iD/g Blood: 2.28 % iD/g
[4]; Bone, Jurkat xenograft, CB-17 SCID female mice
  % iD/g Bone: 0.80 % iD/g
[4]; Heart, Jurkat xenograft, CB-17 SCID female mice
  % iD/g Heart: 1.31 % iD/g
[4]; Intestine, Jurkat xenograft, CB-17 SCID female mice
  % iD/g Intestine: 1.13 % iD/g
[4]; Kidney, Jurkat xenograft, CB-17 SCID female mice
  % iD/g Kidney: 18.3 % iD/g
[4]; Liver, Jurkat xenograft, CB-17 SCID female mice
  % iD/g Liver: 27.8 % iD/g
[4]; Lung, Jurkat xenograft, CB-17 SCID female mice
  % iD/g Lung: 3.67 % iD/g
[4]; Muscle, Jurkat xenograft, CB-17 SCID female mice
  % iD/g Muscle: 0.33 % iD/g
[4]; Pancreas, Jurkat xenograft, CB-17 SCID female mice
  % iD/g Pancreas: 0.80 % iD/g
[4]; Spleen, Jurkat xenograft, CB-17 SCID female mice
  % iD/g Spleen: 4.31 % iD/g
[4]; Stomach, Jurkat xenograft, CB-17 SCID female mice
  % iD/g Stomach: 1.85 % iD/g
[4]; Tumor, Jurkat xenograft, CB-17 SCID female mice
  % iD/g Tumor: 2.41 % iD/g

## CPCR4-HYNIC [In Literature: 99mTc-CXCR4-L; hydrazino-nicotinic acid attached directly at the D-Orn2 side chain of CPCR4, reference compound]
[1]; 90 min
  Internalization [% Fc-131]: 29 (90 min) % Fc-131
CXCR4 [6]; radiolabeled compound displaced by Fc-131, Jurkat cells
  invIC50 [nM]: No
[3]
  logD7.4: −1.84 ± 0.01 (8)
